Data taken from patent publication US9675591B2, “Methods for treating seizure disorders and pain” (THE REGENTS OF THE UNIVERSITY OF CALIFORNIA, priority 2013, dated 2017).

Legend:
[1] = tested on: Metrazol seizure threshold; experiment: Infusion of Metrazol (i.v. Met) seizure threshold test; type: in vivo, mice
Method: The i.v. Met test provides a measure of a test substance's ability to raise or lower seizure threshold. Two doses of the test compound are usually employed in this test, the MES ED50 and the TD50 determined following i.p. quantification testing in mice. SKA-19 was accordingly tested at 5 and 30 mg/kg. Randomly selected mice (n=30) were injected i.p. 2 minutes apart with either the vehicle or the two test drug doses. At the previously determined TPE, 0.5% heparinized Metrazol solution was infused at a constant rate of 0.34 ml/min into a lateral tail vein. The time in seconds from the start of the infusion to the appearance of the “first twitch” and the onset of sustained clonus is recorded. The times to each endpoint are converted to mg/kg of Metrazol for each mouse as follows: mg/kg Met=Infusion time (T)×Rate of infusion (ml/min)×mg Met/ml×1000 g/60 sec×Weight (W) of animal in g=T×0.34×5×1000=28.33×T=mg/kg of Metrazol 60×W W. The mean and S.E. for each of the 3 groups and the significance of the difference between the test groups and the control are calculated.

formalin-induced pain = experiment: Formalin pain assay; type: in vivo, mice; conditions: 5 mg/kg
Method: SKA-19 was administered at a dose of 5 mg/kg to CF-1 male mice. At the previously determined time of peak anticonvulsant effect 0.5% formalin was injected sub-dermally into the plantar surface of the right hind foot. For each animal the amount of time (s) spent licking the affected hind paw in a two minute period was recorded at 5 minute intervals and continued for 45 minutes through both the acute and inflammatory phase.

[2] = Plasma protein binding by ultrafiltration; type: in vitro ADME; conditions: rat plasma
Method: For intravenous application, SKA-19 was dissolved at 5 mg/mL in a mixture of 10% CremophorEL (Sigma-Aldrich, St. Louis, Mo., USA) and 90% phosphate-buffered saline and then injected at 10 mg/kg into the tail vein of Sprague-Dawley rats. At various time points after the injection, ˜100 to 200 μL of blood was collected from a tail nick into EDTA blood sample collection tubes. Plasma was separated by centrifugation and stored at −80° C. pending analysis. For intraperitoneal application SKA-19 was dissolved in Miglyol 812 neutral oil (caprylic/capric triglyceride; Trade name Neobee M5, Spectrum Chemicals, Gardena, Calif., USA) at 2 mg/mL and injected intraperitoneally at 10 and 30 mg/kg. After determining that SKA-19 plasma concentrations peaked 2 h after i.p. application, a group of 3 rats was subjected to cardiac puncture under deep isoflurane anesthesia and then sacrificed before removing brain, heart, liver, spleen and fat. Tissue samples were homogenized in 1 ml of H2O with a Brinkman Kinematica PT 1600E homogenizer and the protein precipitated with 1 ml of acetonitrile. The samples were then centrifuged at 3000 rpm and supernatants concentrated to 1 ml. Plasma and homogenized tissue samples were purified using C18 solid phase extraction cartridges. Eluted fractions corresponding to SKA-19 were dried under nitrogen and reconstituted in acetonitrile. […] Using electrospray ionization MS and selective reaction monitoring (SRM) (capillary temperature 350° C., capillary voltage 4000 V, collision energy −26 eV, positive ion mode), SKA-19 was quantified by its base peak of 182.9 m/z (C7H7N2S2^•+ fragment) and its concentration was calculated with a 9-point calibration curve from 50 nmol/L to 10 μmol/L. The percentage of plasma protein binding for SKA-19 was determined by ultrafiltration. […] The centrifugate (=free SKA-19) was directly analyzed for SKA-19 by UPLC-MS. […]

Nav1.7 = Nav1.7 (Homo sapiens (Human), UniProt Q15858); experiment: Voltage-clamp, Nav1.7 in HEK-293 cells; type: cell-based
Sequence of Nav1.7 (Q15858 whole entry): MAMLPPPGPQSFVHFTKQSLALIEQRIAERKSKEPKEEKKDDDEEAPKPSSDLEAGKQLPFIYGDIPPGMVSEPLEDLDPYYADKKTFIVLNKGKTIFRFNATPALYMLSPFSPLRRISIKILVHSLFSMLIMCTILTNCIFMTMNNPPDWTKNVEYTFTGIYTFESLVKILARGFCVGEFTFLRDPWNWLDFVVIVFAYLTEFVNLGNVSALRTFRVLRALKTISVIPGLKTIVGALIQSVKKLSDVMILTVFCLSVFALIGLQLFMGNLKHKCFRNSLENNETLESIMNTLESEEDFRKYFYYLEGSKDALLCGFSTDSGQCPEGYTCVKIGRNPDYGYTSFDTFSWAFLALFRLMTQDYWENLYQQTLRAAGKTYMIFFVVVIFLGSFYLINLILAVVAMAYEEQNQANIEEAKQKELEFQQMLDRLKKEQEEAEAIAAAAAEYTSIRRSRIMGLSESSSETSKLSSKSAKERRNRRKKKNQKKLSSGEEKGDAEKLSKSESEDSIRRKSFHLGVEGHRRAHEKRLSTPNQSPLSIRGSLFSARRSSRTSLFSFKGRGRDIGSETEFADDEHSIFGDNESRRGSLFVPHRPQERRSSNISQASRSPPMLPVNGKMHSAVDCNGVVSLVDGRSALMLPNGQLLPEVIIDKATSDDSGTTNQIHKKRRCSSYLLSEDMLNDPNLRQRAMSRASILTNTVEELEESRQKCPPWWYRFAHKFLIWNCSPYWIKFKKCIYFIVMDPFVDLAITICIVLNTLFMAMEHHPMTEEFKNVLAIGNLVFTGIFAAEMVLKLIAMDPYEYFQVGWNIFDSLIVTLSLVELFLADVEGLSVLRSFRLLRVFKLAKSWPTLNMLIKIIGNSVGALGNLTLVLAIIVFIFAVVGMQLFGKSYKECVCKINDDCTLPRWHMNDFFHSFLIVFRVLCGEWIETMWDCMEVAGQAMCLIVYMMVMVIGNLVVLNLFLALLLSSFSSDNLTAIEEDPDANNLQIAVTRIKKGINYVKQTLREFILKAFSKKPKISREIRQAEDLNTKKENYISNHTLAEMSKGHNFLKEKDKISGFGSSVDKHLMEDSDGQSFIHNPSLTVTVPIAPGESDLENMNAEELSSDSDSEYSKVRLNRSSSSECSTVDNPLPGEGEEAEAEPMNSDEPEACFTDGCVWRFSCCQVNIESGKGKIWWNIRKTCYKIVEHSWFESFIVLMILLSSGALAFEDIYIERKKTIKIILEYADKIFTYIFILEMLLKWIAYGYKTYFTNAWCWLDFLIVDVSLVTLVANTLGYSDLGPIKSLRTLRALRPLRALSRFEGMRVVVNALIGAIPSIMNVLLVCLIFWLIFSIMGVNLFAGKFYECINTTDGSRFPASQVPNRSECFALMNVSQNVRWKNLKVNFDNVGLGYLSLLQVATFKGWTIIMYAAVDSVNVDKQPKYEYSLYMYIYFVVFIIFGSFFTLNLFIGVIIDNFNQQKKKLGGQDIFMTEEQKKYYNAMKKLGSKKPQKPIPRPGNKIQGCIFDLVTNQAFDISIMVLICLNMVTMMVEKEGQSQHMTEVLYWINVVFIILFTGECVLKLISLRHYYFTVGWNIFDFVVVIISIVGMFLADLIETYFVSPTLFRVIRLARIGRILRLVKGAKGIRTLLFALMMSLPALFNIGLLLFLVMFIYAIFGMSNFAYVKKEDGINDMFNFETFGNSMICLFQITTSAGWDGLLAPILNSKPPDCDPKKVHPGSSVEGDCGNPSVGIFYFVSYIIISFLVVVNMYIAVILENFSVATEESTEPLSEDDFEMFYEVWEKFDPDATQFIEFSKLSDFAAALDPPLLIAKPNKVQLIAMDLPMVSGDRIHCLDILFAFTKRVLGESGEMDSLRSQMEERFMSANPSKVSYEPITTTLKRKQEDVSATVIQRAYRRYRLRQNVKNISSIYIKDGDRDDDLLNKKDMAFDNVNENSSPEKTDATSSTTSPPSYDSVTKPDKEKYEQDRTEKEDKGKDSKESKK
Method: (§1) All experiments were conducted at room temperature (22-24° C.) with an EPC-10 amplifier and Pulse software (HEKA, Lambrecht/Pfalz, Germany) in the whole-cell mode of the patch-clamp technique. Human embryonic kidney (HEK)-293 cell lines stably expressing hNav1.1, hNav1.5, hNav1.7 channels (generously provided by Dr. Christopher Lossin, University of California Davis), hNav1.4 (Frank Lehmann-Horn, University of Ulm), or hKv2.1 channels (James Trimmer, University of California Davis) were bathed in extracellular solution containing (in mM): 160 NaCl; 4.5 KCl; 1 MgCl2; 2 CaCl2; 10 HEPES [pH was adjusted to 7.4 using NaOH (310 mOsm)]. Pipettes were filled with intracellular solution containing (in mM): 145 KF; 2 MgCl2; 10 ethylene glycol tetraacetic acid; 10 HEPES (pH adjusted to 7.2 with KOH; 300 mOsm). Neuroblastoma N1E-115 cells (ATCC, Manassa, Va., USA) expressing Nav1.2 were patched with a CsF internal solution consisting of (in mM): 10 NaF; 110 CsF; 20 CsCl; 2 ethylene glycol tetraacetic acid; 10 HEPES (CsOH to pH 7.35; 300 mOsm). All pipette tip resistances were 2-4 MΩ. Series resistances of 3-10 MΩ were compensated 40-80%. All cells were voltage-clamped to a holding potential of −90 mV unless otherwise specified. The sampling frequency was 5 kHz. Na^+ currents were elicited by 30-ms pulse to 0 mV from −90 mV applied every 10 s. […]

Kv2.1 = Kv2.1 (Homo sapiens (Human), UniProt Q14721); experiment: Voltage-clamp, Kv2.1 in HEK-293 cells; type: cell-based; conditions: read-out: EC50 or IC50, Kv2.1
Sequence of Kv2.1 (Q14721 whole entry): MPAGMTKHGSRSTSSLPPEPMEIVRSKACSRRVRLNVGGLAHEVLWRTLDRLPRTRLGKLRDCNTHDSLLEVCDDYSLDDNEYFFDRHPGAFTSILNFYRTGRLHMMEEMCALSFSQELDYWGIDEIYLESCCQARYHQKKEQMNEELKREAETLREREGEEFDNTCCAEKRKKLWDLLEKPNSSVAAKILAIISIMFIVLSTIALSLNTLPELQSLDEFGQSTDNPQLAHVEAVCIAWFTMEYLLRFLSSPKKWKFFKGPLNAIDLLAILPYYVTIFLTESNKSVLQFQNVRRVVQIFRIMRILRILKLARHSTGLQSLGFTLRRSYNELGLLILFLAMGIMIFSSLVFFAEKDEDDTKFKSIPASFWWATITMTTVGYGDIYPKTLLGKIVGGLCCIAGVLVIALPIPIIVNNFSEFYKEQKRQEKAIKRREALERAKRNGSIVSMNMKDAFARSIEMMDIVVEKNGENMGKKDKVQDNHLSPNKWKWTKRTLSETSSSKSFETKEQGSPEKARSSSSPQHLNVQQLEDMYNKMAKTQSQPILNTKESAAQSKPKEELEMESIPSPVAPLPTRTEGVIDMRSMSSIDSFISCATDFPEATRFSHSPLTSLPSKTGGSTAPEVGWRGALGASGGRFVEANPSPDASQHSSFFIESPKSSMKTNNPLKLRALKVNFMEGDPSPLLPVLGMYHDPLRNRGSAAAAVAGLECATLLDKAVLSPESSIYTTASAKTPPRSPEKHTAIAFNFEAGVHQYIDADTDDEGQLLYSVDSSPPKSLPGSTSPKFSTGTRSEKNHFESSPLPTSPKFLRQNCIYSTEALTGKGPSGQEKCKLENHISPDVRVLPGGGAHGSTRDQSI
Method: as §1

Nc1nc2ccc(SC(F)(F)F)cc2s1 [SKA-19, 6-((trifluoromethyl)thio)benzo[d]thiazol-2-amine]
time or metrazole dose to the first twitch or clonus ([1]; 5 mg/kg i.p.): did not change
proconvulsant action ([1]; 5 and 30 mg/kg i.p.): not proconvulsant
Metrazole dose to first clonus ([1]; SKA-19 30 mg/kg i.p.): 37.2 ± 1.25 mg/kg
Metrazole dose to first twitch ([1]; SKA-19 30 mg/kg i.p.): 31.6 ± 1.0 mg/kg
reduction of paw licking (area under curve), Phase II (formalin-induced pain; 2 hours prior to formalin): 31.3%
reduction of total paw licking (area under curve), Phase I (formalin-induced pain; 2 hours prior to formalin): 54.5%
time spent licking the affected hindpaw (formalin-induced pain; 2 h prior to formalin): significantly decreased
fraction unbound [2]: 0.11 to 0.18
fraction unbound at 15 min [2]: 0.11
unbound (free) fraction [2]: 9.0±0.4%
block of Nav1.7 (Nav1.7): low micromolar range
IC50 (Kv2.1): 22.3 ± 5.6 µM
